Reference: ChEMBL document CHEMBL1201862, “PubChem BioAssay data set” (2004)
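Cultured in 96-well plates, cells were exposed to test compound for 48 hours across five concentrations. GI50: concentration for 50% inhibition of growth.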 Calls of active or inactive are those of the source. No stated cut-off is given here; in the data, active = GI50 up to about 1.1 µM and inactive = higher.

Experiments:
Assay in all cases: NCI tumour cell line growth inhibition, 48 h
Malme-3M = tested on: Malme-3M
M14 = tested on: M14
786-0 = tested on: 786-0
K562 = tested on: K562
MDA-N = tested on: MDA-N
OVCAR-8 = tested on: OVCAR-8
SW-620 = tested on: SW-620
HCC 2998 = tested on: HCC 2998
COLO 205 = tested on: COLO 205
CAKI-1 = tested on: CAKI-1
NCI-H23 = tested on: NCI-H23
PC-3 = tested on: PC-3
SNB-75 = tested on: SNB-75
IGROV-1 = tested on: IGROV-1
SK-MEL-28 = tested on: SK-MEL-28
UACC-62 = tested on: UACC-62
T47D = tested on: T47D
MOLT-4 = tested on: MOLT-4
HOP-62 = tested on: HOP-62
SN12C = tested on: SN12C
HL-60 = tested on: HL-60
SK-MEL-5 = tested on: SK-MEL-5
RXF 393 = tested on: RXF 393
TK-10 = tested on: TK-10
EKVX = tested on: EKVX
HT-29 = tested on: HT-29
RPMI-8226 = tested on: RPMI-8226
MDA-MB-231 = tested on: MDA-MB-231
CCRF-CEM = tested on: CCRF-CEM
MCF7 = tested on: MCF7
SK-OV-3 = tested on: SK-OV-3
A549 = tested on: A549
HCT-15 = tested on: HCT-15
KM12 = tested on: KM12
SR = tested on: SR
UACC-257 = tested on: UACC-257
DU-145 = tested on: DU-145
SF-295 = tested on: SF-295
SNB-19 = tested on: SNB-19
UO-31 = tested on: UO-31
OVCAR-3 = tested on: OVCAR-3
NCI-H460 = tested on: NCI-H460
NCI/ADR-RES = tested on: NCI/ADR-RES
HCT-116 = tested on: HCT-116
SK-MEL-2 = tested on: SK-MEL-2
OVCAR-5 = tested on: OVCAR-5
A498 = tested on: A498

Cc1ccc(S(=O)(=O)OC2C(O)C(O)OC2C(c2cc(O)c3c(c2O)C(=O)c2ccccc2C3=O)c2cc(O)c3c(c2O)C(=O)c2ccccc2C3=O)cc1 (stereo not given)
GI50 (Malme-3M): 1.28 µM (inactive) | GI50 (M14): 2.74 µM (inactive) | GI50 (786-0): 4.94 µM (inactive) | GI50 (K562): 3.24 µM (inactive) | GI50 (MDA-N): 3.61 µM (inactive) | GI50 (OVCAR-8): 3.44 µM (inactive) | GI50 (SW-620): 4.65 µM (inactive) | GI50 (HCC 2998): 4.09 µM (inactive) | GI50 (COLO 205): 2.2 µM (inactive) | GI50 (CAKI-1): 2.74 µM (inactive) | GI50 (NCI-H23): 2.99 µM (inactive) | GI50 (PC-3): 2.9 µM (inactive) | GI50 (SNB-75): 4.09 µM (inactive) | GI50 (IGROV-1): 7.1 µM (inactive) | GI50 (SK-MEL-28): 7.26 µM (inactive) | GI50 (UACC-62): 4.38 µM (inactive) | GI50 (T47D): 5.07 µM (inactive) | GI50 (MOLT-4): 3.31 µM (inactive) | GI50 (HOP-62): 4.11 µM (inactive) | GI50 (SN12C): 3.65 µM (inactive) | GI50 (HL-60): 1.87 µM (inactive) | GI50 (SK-MEL-5): 3.43 µM (inactive) | GI50 (RXF 393): 5.36 µM (inactive) | GI50 (TK-10): 8.71 µM (inactive) | GI50 (EKVX): 3.33 µM (inactive) | GI50 (HT-29): 5.24 µM (inactive) | GI50 (RPMI-8226): 2.64 µM (inactive) | GI50 (MDA-MB-231): 4.06 µM (inactive) | GI50 (CCRF-CEM): 3.89 µM (inactive) | GI50 (MCF7): 3.44 µM (inactive) | GI50 (SK-OV-3): 6.25 µM (inactive) | GI50 (A549): 3.54 µM (inactive) | GI50 (HCT-15): 3.4 µM | GI50 (KM12): 3.42 µM (inactive) | GI50 (SR): 3.08 µM (inactive) | GI50 (UACC-257): 3.01 µM (inactive) | GI50 (DU-145): 5.58 µM (inactive) | GI50 (SF-295): 3.76 µM (inactive)

CN(C)c1ccc(/C=C/c2ccc(S(N)(=O)=O)cc2)cc1
GI50 (Malme-3M): 14 µM (inactive) | GI50 (SNB-19): 20.2 µM (inactive) | GI50 (M14): 15.8 µM (inactive) | GI50 (786-0): 16.9 µM (inactive) | GI50 (UO-31): 17.7 µM (inactive) | GI50 (MDA-N): 11.8 µM (inactive) | GI50 (OVCAR-3): 20.4 µM (inactive) | GI50 (SW-620): 11.1 µM (inactive) | GI50 (HCC 2998): 34 µM (inactive) | GI50 (COLO 205): 24.5 µM (inactive) | GI50 (PC-3): 14.8 µM (inactive) | GI50 (SNB-75): 22.7 µM (inactive) | GI50 (SK-MEL-28): 11.5 µM (inactive) | GI50 (T47D): 27 µM (inactive) | GI50 (HOP-62): 18.7 µM (inactive) | GI50 (SN12C): 20.4 µM (inactive) | GI50 (SK-MEL-5): 11.3 µM (inactive) | GI50 (NCI-H460): 14.9 µM (inactive) | GI50 (RXF 393): 20.7 µM (inactive) | GI50 (NCI/ADR-RES): 14.8 µM (inactive) | GI50 (TK-10): 20.5 µM (inactive) | GI50 (EKVX): 21.8 µM (inactive) | GI50 (MDA-MB-231): 13.5 µM (inactive) | GI50 (MCF7): 13.4 µM (inactive) | GI50 (SK-OV-3): 17 µM (inactive) | GI50 (HCT-116): 23.1 µM (inactive) | GI50 (SK-MEL-2): 28.2 µM (inactive) | GI50 (UACC-257): 46.5 µM (inactive) | GI50 (OVCAR-5): 18 µM (inactive) | GI50 (DU-145): 13.6 µM (inactive) | GI50 (A498): 17.7 µM (inactive) | GI50 (SF-295): 24.3 µM (inactive)
